Legend:
hippocampal neurons [1] = assay: Neurite outgrowth in co-cultures with pharmacological inhibitors (PP2, SU5402); format: cell-based, rat; settings: neurons on control or NCAM-expressing fibroblasts; for effect of inhibitor on GDNF-induced neurite outgrowth: 10 ng/ml GDNF, PP2 0.2-25 μM, SU5402 1-25 μM; for effect of inhibitor on G2-induced neurite outgrowth: 3 μg/ml G2, PP2 0.2-100 μM, SU5402 1-100 μM, 24 hours
Protocol: (§1) In monocultures, neurons are grown directly on plastic and the only neuritogenic stimulus is the one presented by the added substance. In co-cultures, neurons are grown on top of a confluent monolayer of fibroblasts expressing NCAM-140 (LBN110) or NCAM-negative control fibroblasts (LVN212). NCAM on the neurons interact with NCAM on LBN110 cells thereby stimulating neurite outgrowth from the neurons. This system thus permits the study of NCAM-NCAM interactions and interactions between NCAM and other molecules.
(§2) For cocultures, L-cells were seeded in 8-well LabTek® Permanox Chamber slides at a density of 100.000 cells/well, except for transfection experiments where cells were seeded in 4-well LabTek® Permanox Chamber slides at a density of 200.000 cells/well. L-cells were grown for 24 hours in DMEM supplemented with 10% (v/v) FCS, 1% (v/v) glutamax, 100 U/ml penicillin, 100 μg/ml streptomycin, 2.5 μg/ml fungizone, and 567 μg/ml neomycin (G418), followed by washing twice in neurobasal medium with supplements before primary hippocampal neurons were seeded at a density of 7.000 cells/well in 8-well slides or 20.000 cells/well in 4-well slides.
To evaluate the involvement different intracellular signal transduction pathways pharmacological inhibitors, in particular the FGFR inhibitor SU5402 and Fyn-kinase inhibitor PP2, were diluted to the appropriate concentrations and added to the neurons immediately after seeding. After 10 minutes GDNF, GDNFp1 or medium (controls) was added and cells were incubated for 24 hours.
(§3) Neurite outgrowth experiments were terminated after the stated time by fixating the cells. To visualize neurons and their neurites, immunostaining of GAP-43 was performed. This staining is specific for neurons. Transfected cells and their neurites should be visible without immunostaining due to the fluorescence emitted by GFP. […] GFP is a cytoplasmic protein, and since thin neurites only contain a small volume of cytoplasm, GFP is only found in small amounts in most neurites. Therefore, a double-staining protocol, where cells were immunostained against GFP and GAP-43, was adopted. This protocol allowed the identification of transfected cells on the basis of GFP-staining in combination with visualization of neurites based on GAP-43-staining.
Without prior removal of the medium 300 μl/well (8-well slides) or 500 μl/well (4-well slides) of a PBS solution containing 0.4 mM CaCl2, 0.05 M sucrose and 8% (v/v) formaldehyde was added to the cultures for 20 minutes. Cells were then washed 10 minutes in PBS followed by washing in PBS with 1% (w/v) BSA for 20 minutes, after which cells were incubated with primary antibodies overnight at 4° C. […]

GFRα receptors = assay: Surface plasmon resonance (SPR) binding analysis, GFRα receptors; settings: immobilized receptor protein, 25° C., PBS pH 7.4
Protocol: Analysis of binding was performed employing a BIAcoreX instrument (Biosensor AB, Uppsala, Sweden) at 25° C. using 10 mM pH 7.4 sodium phosphate containing 150 mM NaCl as running buffer (phosphate-buffered saline, PBS). The flow-rate was 5 μl/min. Data were analysed by non-linear curve-fitting using the manufacturer's software. The receptor proteins, e.g. NCAM Ig1-Ig2 and GFR proteins, were immobilized on a sensor chip CM5 using an amine coupling kit (Biosensor AB) as follows: the chip was activated by 20 μl activation solution; the protein was immobilized using 12 μl 20 μg/ml protein in 10 mM sodium phosphate buffer pH 6.0; the chip was blocked by 35 μl blocking solution. Various peptides at the indicated concentrations were injected into the sensor chip. The curve corresponding to the difference between binding to receptor and a blank chip was used for analysis.

[2] = tested on: cerebellar granule neurons (CGN); assay: Survival assay, cerebellar granule neurons (apoptosis induced by low KCl); format: cell-based, Wistar rat; settings: 5 mM KCl, two days after induction of apoptosis
Protocol: Cerebellar granule neurons (CGN) were prepared from postnatal day seven Wistar rats largely as previously described by Schousboe et al. (1989). Cerebellar tissue was dissected in modified Krebs-Ringer solution kept on ice, and treated as described for the hippocampal neurons above. All cell cultures were incubated at 37° C. in a humidified atmosphere containing 5% CO2. All animals were handled in accordance with the national guidelines for animal welfare.
Primary cultures of CGN were plated at a density of 100,000 cells/cm^2 on poly-L-lysine coated 8-well permanox slides in Neurobasal-A medium (Gibco, BRL) supplemented with 2% (v/v) B27, 0.5% (v/v) glutamax, 100 U/ml penicillin, 100 μg/ml streptomycin and KCl, making the final concentration of KCl in the medium 40 mM. 24 hours after plating, cytosine-β-D-arabinofuranoside (Ara-C; Sigma-Aldrich) was added to a final concentration of 10 μM to avoid proliferation of glial cells, after which the neurons were allowed to differentiate for further six days at 37° C. Apoptotic cell death was induced by washing twice and changing the medium to Basal Medium Eagle (BME; Gibco BRL) supplemented with 1% (v/v) glutamine, 100 U/ml penicillin and 100 μg/ml streptomycin, 3.5 g D-glucose/l and 1% (v/v) sodium pyruvate (Gibco BRL) together with various concentrations of peptide. Thereby the concentration of potassium in the cultures was reduced to 5 mM KCl (D'Mello et al., 1993). Two days after induction of apoptosis, the cells were fixed with 4% (v/v) formaldehyde and stained with Hoechst 33258 for 25 minutes as described by Kruman et al. (1997). Images of 1000-1500 neurons were randomly recorded for each group in each experiment using computer assisted fluorescence microscopy as described for the hippocampal neurite outgrowth assay. Nuclei from dead and live neurons were counted using the software package Prima developed at the Protein Laboratory, and the fraction of live neurons relative to the total number of neurons was estimated.

[3] = tested on: primary hippocampal neurons; assay: Neurite outgrowth assay, monocultures of primary hippocampal neurons; format: cell-based, rat; settings: monoculture, stimulated 24 hours; GDNF 1-100 ng/ml, peptides 0.1-27 μg/ml; versus medium alone
Protocol: (§4) Two different versions of the neurite outgrowth assay were used in this study, monocultures and co-cultures.
as §1
(§5) For all experiments cells were grown in neurobasal medium with supplements as described above in a final volume of 300 μl/well in 8-well LabTek® Permanox Chamber slides or 500 μl/well in 4-well LabTek® Permanox Chamber slides.
For monocultures, primary hippocampal neurons were seeded in 8-well LabTek® Permanox Chamber slides at a density of 10,000 cells/well.
(§6) To evaluate the effect peptides on neurite outgrowth, GDNF and the peptides, G1, G2, G3, A1, A2, A3, N1, N2 and N3 were diluted to the appropriate concentrations and added to the neurons approximately 10 minutes after seeding. Medium alone was added to controls, and cells were incubated for 24 hours.
as §3, with “GAP-43-staining. […]” for “GAP-43-staining.”

hippocampal neurons [4] = assay: Neurite outgrowth assay, co-cultures of hippocampal neurons on control fibroblasts or NCAM-expressing fibroblasts; format: cell-based, rat; settings: 24 hours
Protocol: as §4, §1, §5, §2, §6, §3
Without prior removal of the medium 300 μl/well (8-well slides) or 500 μl/well (4-well slides) of a PBS solution containing 0.4 mM CaCl2, 0.05 M sucrose and 8% (v/v) formaldehyde was added to the cultures for 20 minutes. Cells were then washed 10 minutes in PBS followed by washing in PBS with 1% (w/v) BSA for 20 minutes, after which cells were incubated with primary antibodies overnight at 4° C.
Rabbit anti-rat GAP-43 antibodies were diluted 1:1000 for staining of untransfected cells and 1:2000 for staining of transfected cells. Mouse anti-GFP antibodies were diluted 1:1000. Antibodies were diluted in a PBS solution containing 7% (v/v) FCS to block unspecific binding, 50 mM glycine to block formaldehyde used for fixation, 0.2% (v/v) saponin to permeabilize cells, and 0.02% (v/v) NaN3 to preserve antibodies for later use.
The next day cells were washed 10 minutes in PBS followed by washing in PBS with 1% (w/v) BSA for 20 minutes. Cells were then incubated with secondary antibodies diluted in PBS with 1% (w/v) BSA for one hour at room temperature. Goat anti-rabbit IgG antibodies conjugated to Alexa 488 were diluted 1:1000 for untransfected cells and 1:2000 for transfected cells. Goat anti-mouse IgG antibodies conjugated to Alexa 546 were diluted 1:1000. Finally cells were washed 3×7 minutes in PBS and mounted with fluorescent mounting medium. […]

For CC(C)(C)n1nc(-c2ccc(Cl)cc2)c2c(N)ncnc21 [PP2], the “effect of inhibitor on GDNF-induced neurite outgrowth” value (hippocampal neurons [1]) was “decreases GDNF-induced neurite outgrowth” and the “effect of inhibitor on G2-induced neurite outgrowth” value (hippocampal neurons [1]) was “decreases G2-induced neurite outgrowth”.

In the case of Cc1c[nH]c(/C=C2\C(=O)Nc3ccccc32)c1CCC(=O)O [SU5402], the “effect of inhibitor on GDNF-induced neurite outgrowth” value (hippocampal neurons [1]) is reported as “decreases GDNF-induced neurite outgrowth” and the “effect of inhibitor on G2-induced neurite outgrowth” value (hippocampal neurons [1]) is reported as “decreases G2-induced neurite outgrowth”.

With “ARVYDLGLRRLRQRR (listed as Homo sapiens) [N2, neurturin fragment]” the “binding to the GFRα receptors (SPR)” value (GFRα receptors) was “binding”.

With “DEVSFLDAHSRY (listed as Homo sapiens) [NeuGi, neurturin-derived peptide]” the “survival of cerebellar granule neurons (CGN)” value (from here on “survival”) [2] was “increases the survival of CGNs” and the “binding to the GFRα receptors (SPR)” value (GFRα receptors) was “binding”.

In the case of “DLSFLDDNLVY (listed as Homo sapiens) [G3, GDNF fragment]”, the “neurite outgrowth, overall effect of treatment (one-way ANOVA)” value [3] is reported as “do not induce neurite outgrowth”, the “neurite outgrowth, overall effect of treatment, neurons grown on NCAM-expressing fibroblasts” value (hippocampal neurons [4]; co-culture on NCAM-expressing fibroblasts, GDNF 1-100 ng/ml, peptides 0.1-81 μg/ml) is reported as “overall statistical significant effect” and the “neurite outgrowth, overall effect of treatment, neurons grown on control fibroblasts” value (hippocampal neurons [4]; co-culture on control fibroblasts, GDNF 1-100 ng/ml, peptides 0.1-81 μg/ml) is reported as “no overall significant effect”. For the same compound, the “difference between neurite outgrowth on control fibroblasts and on NCAM-expressing fibroblasts across concentrations (one-way ANOVA)” value (hippocampal neurons [4]; difference per concentration, expressed as percentage of control) was “mean differences are not all the same” and the “direction of the effect on NCAM-induced neurite outgrowth” value (hippocampal neurons [4]; neurons on NCAM-expressing fibroblasts, 0.3-81 μg/ml) was “inhibitory at higher concentrations”.

With “EAVSFMDVNSTWR (listed as Homo sapiens) [ArtGi, artemin-derived peptide]” the “survival” value [2] was “increases the survival of CGNs” and the “binding to the GFRα receptors (SPR)” value (GFRα receptors) was “binding”.

In the case of “RSPHDLSLASLLGAG (listed as Homo sapiens) [A2, artemin fragment]”, the “survival” value [2] is reported as “increases the survival of CGNs” and the “binding to the GFRα receptors (SPR)” value (GFRα receptors) is reported as “binding”.

With “VPVRALGLGHRSDEL (listed as Homo sapiens) [A1, artemin fragment]” the “survival” value [2] was “increases the survival of CGNs”.

For “VRVSELGLGYASDET (listed as Homo sapiens) [N1, neurturin fragment]”, the “survival” value [2] was “increases the survival of CGNs” and the “binding to the GFRα receptors (SPR)” value (GFRα receptors) was “binding”.

Reference: US8138148B2, “GDNF derived peptides” (Copenhagen University, priority 2005, dated 2012)
